# Patent US10041937B2, “Macrophage identification agent, and identification method, sorting method, evaluation method, screening method and kit using the macrophage identifier agent” (CANON KABUSHIKI KAISHA, priority 2013, dated 2018)
# System: M1 macrophages and M2 macrophages differentiated from mouse bone marrow cells
# Assay: Subtype identification by staining and flow cytometry of M1 and M2 macrophages differentiated from mouse bone marrow cells
# Assay type: cell-based, Balb/c mouse
# Details: M1 vs M2 macrophages from mouse bone marrow cells; general formula (6) dyes (Table 7)
# Experimental: The culture of subtypes was performed according to a protocol described in NPL 7. Specifically, bone marrow cells collected from the femur of a Balb/c mouse of 8 to 10 weeks old were dispersed to a concentration of 1×10^6/mL in an IMDM containing 20% FBS and 1% P/S, and 1×10^7 cells were seeded in a 100 mm dish. After further adding an M-CSF (manufactured by Pepro Tech) thereto to a concentration of 50 ng/mL, the cells were incubated for 3 to 4 days in the presence of 5% CO2 at 37° C., so as to differentiate macrophage precursor cells to macrophages. After exchanging the medium, the M-CSF was added to a concentration of 50 ng/mL, and the incubation was performed for further 3 to 4 days in the presence of 5% CO2 at 37° C., and then, the resulting cells were differentiated to macrophage. By adding 200 ng of interferon-γ and 1 μg of […] (both manufactured by Pepro Tech) to the IMDM containing 5% FBS and 1% P/S, the cells were differentiated to the subtype M1. Besides, by adding 100 ng of IL-4 to the IMDM containing 5% FBS and 1% P/S, the cells were differentiated to the subtype M2. After performing the incubation for further 3 days in the presence of 5% CO2 at 37° C., the resultant was rinsed with PBS, and PBS containing 0.25% trypsin and 1 mM EDTA (ethylenediaminetetraacetic acid) was used for collecting, from the dish, the macrophages having been differentiated to the subtypes M1 and M2.
# Thereafter, the tube was centrifuged at 180 G for 10 minutes to remove the supernatant, a dye for identifying dead cells (aqua fluorescent reactive dye, manufactured by Invitrogen; which is hereinafter sometimes abbreviated as aqua) was added thereto, and the resultant was incubated at 4° C. for 10 minutes. Subsequently, the tube was centrifuged at 180 G for 10 minutes to remove the supernatant, cells were suspended in a FACS buffer to be analyzed by using FACSCanto (trademark) II flow cytometry apparatus manufactured by BD.
# The analysis was performed on a cell population showing a low signal for the aqua, so as to analyze a cell population from which dead cells were eliminated. […] A histogram was prepared by plotting fluorescence intensity obtained in the FITC channel on the abscissa and plotting the number of cells at each fluorescence intensity on the ordinate, which is shown in FIG. 2.
# Histograms were prepared by plotting fluorescence intensities obtained in the respective channels on the abscissa and plotting the numbers of cells at each fluorescence intensity on the ordinate. A difference between a fluorescence intensity (FM1) at a peak top of the histogram of the M1 macrophage and a fluorescence intensity (FM2) at a peak top of the histogram of the M2 macrophage is divided by a sum of a peak width (WM1) of the histogram of the M1 macrophage and a peak width (WM2) of the histogram of the M2 macrophage, so as to obtain a resolution R, which was used as an index of the identification ability for a subtype (see the following expression (1)). Resolution R=|FM1−FM2|/(WM1+WM2) Expression (1)
row,Compound,Resolution ratio R
1,CC1(C)C(/C=C/C=C/C=C/C=C2\N(CCCCS(=O)(=O)[O-])c3ccccc3C2(C)C)=[N+](CCCCS(=O)(=O)[O-])c2ccccc21.[Na+] [(88)],0.241
2,CC1(C)C(/C=C/C=C/C=C/C=C2\N(CCCCS(=O)(=O)[O-])c3ccccc3C2(C)C)=[N+](CCCCS(=O)(=O)[O-])c2ccccc21.[Na+] [(90)],0.321
3,CC1(C)C(/C=C/C=C/C=C/C=C2\N(CCCCCC(=O)[O-])c3ccccc3C2(C)C)=[N+](CCCCCC(=O)[O-])c2ccccc21.[Na+] [(91)],0.476
4,CN1\C(=C/C=C/C=C/C2=[N+](C)c3ccc4ccccc4c3C2(C)C)C(C)(C)c2c1ccc1ccccc21 [(92)],0.534

# Same assay, conditions: R=|FM1−FM2|/(WM1+WM2); compound 1 μM
row,Compound,Resolution ratio R
1,CCN1C(=O)S/C(=c2/s/c(=C/c3ccc4c(c3)C3CCCC3N4c3ccc(OC)cc3)c(=O)n2CC(=O)O)C1=O (centres unmarked) [(44)],0.330
2,CCOC(=O)Cn1c(=O)/c(=C\c2ccc3c(c2)C2CCCC2N3c2ccc(OC)cc2)s/c1=C1/SC(=O)N(CC)C1=O (centres unmarked) [(45)],0.822
3,CCOC(=O)CN1C(=O)/C(=C\c2ccc3c(c2)C2CCCC2N3c2ccccc2)SC1=S (centres unmarked) [(48)],0.621
4,CCOC(=O)CN1C(=O)/C(=C\c2cc(Br)c3c(c2)C2CCCC2N3c2ccc(Br)cc2)SC1=S (centres unmarked) [(49)],0.486
5,CSc1cccc(N2c3ccc(/C=C4/SC(=S)N(CC(=O)O)C4=O)cc3C3CCCC32)c1 (centres unmarked) [(50)],1.025
6,C=CCN1C(=O)/C(=c2\s/c(=C/c3ccc4c(c3)C3CCCC3N4Cc3ccccc3)c(=O)n2CC(=O)OCC)SC1=S (centres unmarked) [(52)],0.756
7,O=C(O)Cn1c(=O)/c(=C\c2ccc3c(c2)C2CCCC2N3Cc2ccccc2)s/c1=C1/SC(=S)N(Cc2ccccc2)C1=O (centres unmarked) [(53)],0.650

# Same assay, conditions: class based on resolution R; general formula (6) dyes (Table 7)
row,Compound,Evaluation of macrophage subtype identification
1,CC1(C)C(/C=C/C=C/C=C/C=C2\N(CCCCS(=O)(=O)[O-])c3ccccc3C2(C)C)=[N+](CCCCS(=O)(=O)[O-])c2ccccc21.[Na+] [(88)],"B (the compound is good in the subtype identification (namely, the resolution R is 0.15 or more and less than 0.5))"
2,CC1(C)C(/C=C/C=C/C=C/C=C2\N(CCCCS(=O)(=O)[O-])c3ccccc3C2(C)C)=[N+](CCCCS(=O)(=O)[O-])c2ccccc21.[Na+] [(90)],"B (the compound is good in the subtype identification (namely, the resolution R is 0.15 or more and less than 0.5))"
3,CC1(C)C(/C=C/C=C/C=C/C=C2\N(CCCCCC(=O)[O-])c3ccccc3C2(C)C)=[N+](CCCCCC(=O)[O-])c2ccccc21.[Na+] [(91)],"B (the compound is good in the subtype identification (namely, the resolution R is 0.15 or more and less than 0.5))"
4,CN1\C(=C/C=C/C=C/C2=[N+](C)c3ccc4ccccc4c3C2(C)C)C(C)(C)c2c1ccc1ccccc21 [(92)],"A (The compound is very good in the subtype identification (namely, the resolution R is 0.5 or more))"

# Same assay, conditions: fluorescence intensity at peak top of histogram; compound 1 μM, 37° C., 30 minutes
Compound,Peak position of M1 macrophage,Peak position of M2 macrophage
CCN1C(=O)S/C(=c2/s/c(=C/c3ccc4c(c3)C3CCCC3N4c3ccc(OC)cc3)c(=O)n2CC(=O)O)C1=O (centres unmarked) [(44)],24.5,12.9
CCOC(=O)Cn1c(=O)/c(=C\c2ccc3c(c2)C2CCCC2N3c2ccc(OC)cc2)s/c1=C1/SC(=O)N(CC)C1=O (centres unmarked) [(45)],18.2,4.84
CCOC(=O)CN1C(=O)/C(=C\c2ccc3c(c2)C2CCCC2N3c2ccccc2)SC1=S (centres unmarked) [(48)],65.4,9.74
CCOC(=O)CN1C(=O)/C(=C\c2cc(Br)c3c(c2)C2CCCC2N3c2ccc(Br)cc2)SC1=S (centres unmarked) [(49)],3.26,5.02
CSc1cccc(N2c3ccc(/C=C4/SC(=S)N(CC(=O)O)C4=O)cc3C3CCCC32)c1 (centres unmarked) [(50)],3.24,0.99
C=CCN1C(=O)/C(=c2\s/c(=C/c3ccc4c(c3)C3CCCC3N4Cc3ccccc3)c(=O)n2CC(=O)OCC)SC1=S (centres unmarked) [(52)],3.90,1.68
O=C(O)Cn1c(=O)/c(=C\c2ccc3c(c2)C2CCCC2N3Cc2ccccc2)s/c1=C1/SC(=S)N(Cc2ccccc2)C1=O (centres unmarked) [(53)],128,190

# Same assay, conditions: mouse bone marrow-derived M1 macrophages; channel listed per compound; general formula (6) dyes (Table 7)
row,Compound,Peak position of M1 macrophage
1,CC1(C)C(/C=C/C=C/C=C/C=C2\N(CCCCS(=O)(=O)[O-])c3ccccc3C2(C)C)=[N+](CCCCS(=O)(=O)[O-])c2ccccc21.[Na+] [(88)],0.95
2,CC1(C)C(/C=C/C=C/C=C/C=C2\N(CCCCS(=O)(=O)[O-])c3ccccc3C2(C)C)=[N+](CCCCS(=O)(=O)[O-])c2ccccc21.[Na+] [(90)],0.86
3,CC1(C)C(/C=C/C=C/C=C/C=C2\N(CCCCCC(=O)[O-])c3ccccc3C2(C)C)=[N+](CCCCCC(=O)[O-])c2ccccc21.[Na+] [(91)],2.96
4,CN1\C(=C/C=C/C=C/C2=[N+](C)c3ccc4ccccc4c3C2(C)C)C(C)(C)c2c1ccc1ccccc21 [(92)],2.27

# Same assay, conditions: mouse bone marrow-derived M2 macrophages; channel listed per compound; general formula (6) dyes (Table 7)
row,Compound,Peak position of M2 macrophage
1,CC1(C)C(/C=C/C=C/C=C/C=C2\N(CCCCS(=O)(=O)[O-])c3ccccc3C2(C)C)=[N+](CCCCS(=O)(=O)[O-])c2ccccc21.[Na+] [(88)],1.48
2,CC1(C)C(/C=C/C=C/C=C/C=C2\N(CCCCS(=O)(=O)[O-])c3ccccc3C2(C)C)=[N+](CCCCS(=O)(=O)[O-])c2ccccc21.[Na+] [(90)],1.31
3,CC1(C)C(/C=C/C=C/C=C/C=C2\N(CCCCCC(=O)[O-])c3ccccc3C2(C)C)=[N+](CCCCCC(=O)[O-])c2ccccc21.[Na+] [(91)],13.89
4,CN1\C(=C/C=C/C=C/C2=[N+](C)c3ccc4ccccc4c3C2(C)C)C(C)(C)c2c1ccc1ccccc21 [(92)],3.9

# Same assay, conditions: rated from resolution R
row,Compound,Evaluation of macrophage subtype identification
1,CCN1C(=O)S/C(=c2/s/c(=C/c3ccc4c(c3)C3CCCC3N4c3ccc(OC)cc3)c(=O)n2CC(=O)O)C1=O (centres unmarked) [(44)],"B (the compound is good in the subtype identification (namely, the resolution R is 0.15 or more and less than 0.5))"
2,CCOC(=O)Cn1c(=O)/c(=C\c2ccc3c(c2)C2CCCC2N3c2ccc(OC)cc2)s/c1=C1/SC(=O)N(CC)C1=O (centres unmarked) [(45)],"A (The compound is very good in the subtype identification (namely, the resolution R is 0.5 or more))"
3,CCOC(=O)CN1C(=O)/C(=C\c2ccc3c(c2)C2CCCC2N3c2ccccc2)SC1=S (centres unmarked) [(48)],"A (The compound is very good in the subtype identification (namely, the resolution R is 0.5 or more))"
4,CCOC(=O)CN1C(=O)/C(=C\c2cc(Br)c3c(c2)C2CCCC2N3c2ccc(Br)cc2)SC1=S (centres unmarked) [(49)],"B (the compound is good in the subtype identification (namely, the resolution R is 0.15 or more and less than 0.5))"
5,CSc1cccc(N2c3ccc(/C=C4/SC(=S)N(CC(=O)O)C4=O)cc3C3CCCC32)c1 (centres unmarked) [(50)],"A (The compound is very good in the subtype identification (namely, the resolution R is 0.5 or more))"
6,C=CCN1C(=O)/C(=c2\s/c(=C/c3ccc4c(c3)C3CCCC3N4Cc3ccccc3)c(=O)n2CC(=O)OCC)SC1=S (centres unmarked) [(52)],"A (The compound is very good in the subtype identification (namely, the resolution R is 0.5 or more))"
7,O=C(O)Cn1c(=O)/c(=C\c2ccc3c(c2)C2CCCC2N3Cc2ccccc2)s/c1=C1/SC(=S)N(Cc2ccccc2)C1=O (centres unmarked) [(53)],"A (The compound is very good in the subtype identification (namely, the resolution R is 0.5 or more))"
